Measurements: ChEMBL document CHEMBL5303573, “Mapping human microbiome drug metabolism by gut bacteria and their genes” (Nature, 2019)

How the values were obtained:
[1] = The drug is tested on Bacteroides caccae strain: ATCC43185 for biotransformation. The drug concentrations were measured before and after a 12-h incubation by liquid-chromatography-coupled mass spectrometry (LC–MS); conditions: 2 µM
[2] = The drug is tested on Bacteroides fragilis strain: HMW610 for biotransformation. The drug concentrations were measured before and after a 12-h incubation by liquid-chromatography-coupled mass spectrometry (LC–MS); conditions: 2 µM
[3] = The drug is tested on Bacteroides ovatus strain: ATCC8483 for biotransformation. The drug concentrations were measured before and after a 12-h incubation by liquid-chromatography-coupled mass spectrometry (LC–MS); conditions: 2 µM
[4] = The drug is tested on Bacteroides uniformis strain: ATCC8492 for biotransformation. The drug concentrations were measured before and after a 12-h incubation by liquid-chromatography-coupled mass spectrometry (LC–MS); conditions: 2 µM
[5] = The drug is tested on Bacteroides xylanisolvens strain: DSM18836 for biotransformation. The drug concentrations were measured before and after a 12-h incubation by liquid-chromatography-coupled mass spectrometry (LC–MS); conditions: 2 µM
[6] = The drug is tested on Odoribacter splanchnicus strain: fecal isolate for biotransformation. The drug concentrations were measured before and after a 12-h incubation by liquid-chromatography-coupled mass spectrometry (LC–MS); conditions: 2 µM
[7] = The drug is tested on Parabacteroides merdae strain: ATCC43184 for biotransformation. The drug concentrations were measured before and after a 12-h incubation by liquid-chromatography-coupled mass spectrometry (LC–MS); conditions: 2 µM
[8] = The drug is tested on Blautia luti strain: DSM14534 for biotransformation. The drug concentrations were measured before and after a 12-h incubation by liquid-chromatography-coupled mass spectrometry (LC–MS); type: ADME; design: dose 2 uM, timepoint 0 vs 12 hours; conditions: 2 µM
[9] = The drug is tested on Dorea formicigenerans strain: ATCC27755 for biotransformation. The drug concentrations were measured before and after a 12-h incubation by liquid-chromatography-coupled mass spectrometry (LC–MS); conditions: 2 µM
[10] = The drug is tested on Enterococcus faecalis strain: V583 for biotransformation. The drug concentrations were measured before and after a 12-h incubation by liquid-chromatography-coupled mass spectrometry (LC–MS); conditions: 2 µM
[11] = The drug is tested on Ruminococcus torques strain: ATCC27756 for biotransformation. The drug concentrations were measured before and after a 12-h incubation by liquid-chromatography-coupled mass spectrometry (LC–MS); type: ADME; design: dose 2 uM, timepoint 0 vs 12 hours; conditions: 2 µM
[12] = The drug is tested on Edwardsiella tarda strain: ATCC23685 for biotransformation. The drug concentrations were measured before and after a 12-h incubation by liquid-chromatography-coupled mass spectrometry (LC–MS); conditions: 2 µM
[13] = The drug is tested on Providencia rettgeri strain: DSM1131 for biotransformation. The drug concentrations were measured before and after a 12-h incubation by liquid-chromatography-coupled mass spectrometry (LC–MS); type: ADME; design: dose 2 uM, timepoint 0 vs 12 hours; conditions: 2 µM
[14] = bifidobacterium adolescentis, 12 h, 2 µM
Description: The drug is tested on Bifidobacterium adolescentis strain: ATCC 15703 for biotransformation. The drug concentrations were measured before and after a 12-h incubation by liquid-chromatography-coupled mass spectrometry (LC–MS)

[15] = bacteroides thetaiotaomicron, 12 h, 2 µM
Description: The drug is tested on Bacteroides thetaiotaomicron strain: VPI-5482 for biotransformation. The drug concentrations were measured before and after a 12-h incubation by liquid-chromatography-coupled mass spectrometry (LC–MS)

[16] = enterocloster bolteae, 12 h, 2 µM
Description: The drug is tested on Clostridium bolteae strain: ATCCBAA-613 for biotransformation. The drug concentrations were measured before and after a 12-h incubation by liquid-chromatography-coupled mass spectrometry (LC–MS)

[17] = akkermansia muciniphila, 12 h, 2 µM
Description: The drug is tested on Akkermansia muciniphila strain: ATCC BAA-835 for biotransformation. The drug concentrations were measured before and after a 12-h incubation by liquid-chromatography-coupled mass spectrometry (LC–MS)

[18] = The drug is tested on Bacteroides fragilis strain: HMW615 for biotransformation. The drug concentrations were measured before and after a 12-h incubation by liquid-chromatography-coupled mass spectrometry (LC–MS); conditions: 2 µM
[19] = limosilactobacillus reuteri cf48-3a, 12 h, 2 µM
Description: The drug is tested on Lactobacillus reuteri CF48-3A strain: BEI HM-102 for biotransformation. The drug concentrations were measured before and after a 12-h incubation by liquid-chromatography-coupled mass spectrometry (LC–MS)

Bacterial Biotransformation [1] | Bacterial Biotransformation [2] | Bacterial Biotransformation [5] | Bacterial Biotransformation [8] | Bacterial Biotransformation [10] | Bacterial Biotransformation [11] | Bacterial Biotransformation [13] | Bacterial Biotransformation [14] | Bacterial Biotransformation [15] | SMILES | Bacterial Biotransformation [3] | Bacterial Biotransformation [4] | Bacterial Biotransformation [6] | Bacterial Biotransformation [7] | Bacterial Biotransformation [9] | Bacterial Biotransformation [12] | Bacterial Biotransformation [16] | Bacterial Biotransformation [17] | Bacterial Biotransformation [18] | Bacterial Biotransformation [19]
Compound NOT metabolized | Compound NOT metabolized | Compound NOT metabolized | Compound NOT metabolized | Compound NOT metabolized | Compound NOT metabolized | Compound NOT metabolized | Compound NOT metabolized | Compound NOT metabolized | CN1CCOC(c2ccccc2)c2ccccc2C1 (stereo unspecified) [NEFOPAM] | Compound NOT metabolized | – | – | Compound NOT metabolized | Compound NOT metabolized | Compound NOT metabolized | Compound NOT metabolized | – | – | Compound NOT metabolized
Compound NOT metabolized | Compound NOT metabolized | – | Compound NOT metabolized | Compound NOT metabolized | Compound NOT metabolized | Compound NOT metabolized | Compound NOT metabolized | Compound NOT metabolized | O=C(CCCN1CCC(O)(c2ccc(Cl)cc2)CC1)c1ccc(F)cc1 [HALOPERIDOL] | Compound NOT metabolized | – | Compound NOT metabolized | Compound NOT metabolized | Compound NOT metabolized | Compound NOT metabolized | Compound NOT metabolized | Compound NOT metabolized | – | Compound NOT metabolized
Compound NOT metabolized | Compound NOT metabolized | Compound NOT metabolized | Compound NOT metabolized | Compound NOT metabolized | Compound NOT metabolized | – | Compound NOT metabolized | Compound NOT metabolized | Cc1ccccc1N1C(=O)c2cc(S(N)(=O)=O)c(Cl)cc2NC1C (stereo unspecified) [METOLAZONE] | – | Compound NOT metabolized | Compound NOT metabolized | – | – | Compound NOT metabolized | – | Compound NOT metabolized | Compound NOT metabolized | Compound NOT metabolized
Compound NOT metabolized | – | Compound NOT metabolized | Compound NOT metabolized | Compound NOT metabolized | Compound NOT metabolized | Compound NOT metabolized | Compound NOT metabolized | Compound NOT metabolized | CN1C(=O)CC(C)(c2ccccc2)C1=O (stereo unspecified) [METHSUXIMIDE] | Compound NOT metabolized | Compound NOT metabolized | Compound NOT metabolized | Compound NOT metabolized | Compound NOT metabolized | Compound NOT metabolized | Compound NOT metabolized | – | – | –
Compound NOT metabolized | Compound NOT metabolized | Compound metabolized | Compound NOT metabolized | Compound NOT metabolized | Compound metabolized | Compound NOT metabolized | Compound NOT metabolized | Compound NOT metabolized | CCN(CC)CCOC(=O)C1(C2CCCCC2)CCCCC1 [DICYCLOMINE] | Compound NOT metabolized | – | – | – | Compound NOT metabolized | – | Compound NOT metabolized | – | – | –

SMILES | Bacterial Biotransformation [1] | Bacterial Biotransformation [2] | Bacterial Biotransformation [5] | Bacterial Biotransformation [8] | Bacterial Biotransformation [10] | Bacterial Biotransformation [11] | Bacterial Biotransformation [13] | Bacterial Biotransformation [14] | Bacterial Biotransformation [15] | Bacterial Biotransformation [3] | Bacterial Biotransformation [4] | Bacterial Biotransformation [6] | Bacterial Biotransformation [7] | Bacterial Biotransformation [9] | Bacterial Biotransformation [12] | Bacterial Biotransformation [16] | Bacterial Biotransformation [17] | Bacterial Biotransformation [18] | Bacterial Biotransformation [19]
CN(C)CC(c1ccc(O)cc1)C1(O)CCCCC1.O=C(O)CCC(=O)O (stereo unspecified) [DESVENLAFAXINE SUCCINATE] | Compound NOT metabolized | Compound NOT metabolized | Compound NOT metabolized | Compound NOT metabolized | Compound NOT metabolized | Compound NOT metabolized | Compound NOT metabolized | Compound NOT metabolized | Compound NOT metabolized | Compound NOT metabolized | Compound NOT metabolized | Compound NOT metabolized | Compound NOT metabolized | Compound NOT metabolized | Compound NOT metabolized | Compound NOT metabolized | Compound NOT metabolized | – | –
CN(C)CCOC(C)(c1ccccc1)c1ccccn1.O=C(O)CCC(=O)O (stereo unspecified) [DOXYLAMINE SUCCINATE] | Compound NOT metabolized | Compound NOT metabolized | Compound NOT metabolized | Compound NOT metabolized | Compound NOT metabolized | Compound NOT metabolized | – | Compound NOT metabolized | Compound NOT metabolized | Compound NOT metabolized | Compound NOT metabolized | Compound NOT metabolized | Compound NOT metabolized | Compound NOT metabolized | Compound NOT metabolized | Compound NOT metabolized | Compound NOT metabolized | Compound NOT metabolized | Compound NOT metabolized
COc1ccc(Cc2nccc3cc(OC)c(OC)cc23)cc1OC [PAPAVERINE] | Compound NOT metabolized | – | Compound NOT metabolized | Compound NOT metabolized | Compound NOT metabolized | Compound NOT metabolized | Compound NOT metabolized | Compound NOT metabolized | Compound NOT metabolized | Compound NOT metabolized | – | – | Compound NOT metabolized | Compound NOT metabolized | Compound NOT metabolized | Compound NOT metabolized | – | – | Compound NOT metabolized
CN(C)C(=O)Oc1cccc([N+](C)(C)C)c1.[Br-] [NEOSTIGMINE BROMIDE] | Compound NOT metabolized | – | – | Compound NOT metabolized | Compound NOT metabolized | Compound NOT metabolized | Compound NOT metabolized | Compound NOT metabolized | Compound metabolized | Compound metabolized | Compound metabolized | Compound NOT metabolized | Compound metabolized | Compound NOT metabolized | Compound NOT metabolized | Compound NOT metabolized | – | – | Compound NOT metabolized
